Assay results taken from article PMC8229396, “Myeloperoxidase Inhibitory and Antioxidant Activities of (E)-2-Hydroxy-α-aminocinnamic Acids Obtained through Microwave-Assisted Synthesis” (Pharmaceuticals, 2021).

Experiments:
Assay type in all cases: biochemical
Myeloperoxidase (MPO) [1] = molecular target: T1, Myeloperoxidase (MPO) (Homo sapiens, UniProt P05164); assay: MPO peroxidation assay (o-dianisidine/H2O2), dose-response
Myeloperoxidase (MPO) [2] = molecular target: T1, Myeloperoxidase (MPO); assay: MPO peroxidation assay (o-dianisidine/H2O2), single concentration […]
Myeloperoxidase (MPO) [3] = molecular target: T1, Myeloperoxidase (MPO); assay: MPO peroxidation assay ([…] at […]) and taurine-chloramine chlorination assay ([…] at […])

T1 sequence (P05164 165-273): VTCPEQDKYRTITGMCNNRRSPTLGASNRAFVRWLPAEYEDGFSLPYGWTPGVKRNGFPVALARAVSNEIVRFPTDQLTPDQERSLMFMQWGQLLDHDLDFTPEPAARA
T1 sequence (P05164 279-745): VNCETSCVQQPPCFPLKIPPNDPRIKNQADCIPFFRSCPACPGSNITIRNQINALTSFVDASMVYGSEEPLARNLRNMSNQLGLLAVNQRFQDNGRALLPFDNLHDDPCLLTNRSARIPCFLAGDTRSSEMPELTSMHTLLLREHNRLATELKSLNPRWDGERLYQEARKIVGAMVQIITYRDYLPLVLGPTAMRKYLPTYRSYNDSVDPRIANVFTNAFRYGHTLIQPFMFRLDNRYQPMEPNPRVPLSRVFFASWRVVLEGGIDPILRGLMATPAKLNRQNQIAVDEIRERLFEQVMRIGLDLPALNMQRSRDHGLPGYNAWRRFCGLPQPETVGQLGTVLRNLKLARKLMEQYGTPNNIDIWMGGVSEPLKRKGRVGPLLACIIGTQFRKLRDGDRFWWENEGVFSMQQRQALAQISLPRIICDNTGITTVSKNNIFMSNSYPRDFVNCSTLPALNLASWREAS

Structure (SMILES)	IC50 (Myeloperoxidase (MPO) [1])	other results
N/C(=C/c1ccccc1O)C(=O)O [2a, (E)-(2-hydroxy)-α-aminocinnamic acid]	45 ± 4 µM	
N/C(=C/c1cc(Br)ccc1O)C(=O)O [2b, (E)-(5-Bromo-2-hydroxy)-α-aminocinnamic acid]		inhibition at 100 µM (Myeloperoxidase (MPO) [2]): 48.4 ± 4.1%
N/C(=C/c1cc(Cl)ccc1O)C(=O)O [2c, (E)-(5-Chloro-2-hydroxy)-α-aminocinnamic acid]		inhibition at 100 µM (Myeloperoxidase (MPO) [3]): 40.5 ± 4.4%
CCOc1cccc(/C=C(/N)C(=O)O)c1O [2e, (E)-(3-Ethoxy-2-hydroxy)-α-aminocinnamic acid]	43 ± 4 µM	
N/C(=C/c1ccc(O)cc1O)C(=O)O [2f, (E)-(2,4-dihydroxy)-α-aminocinnamic acid]	30 ± 5 µM	
N/C(=C/c1cc(O)ccc1O)C(=O)O [2h, (E)-(2,5-dihydroxy)-α-aminocinnamic acid]	26 ± 2 µM	
Nc1ccc(O)c(C(=O)O)c1 [5-ASA, 5-aminosalicylic acid, reference compound]	39 ± 2 µM	
COc1ccc2c(c1)c(CC(=O)O)c(C)n2C(=O)c1ccc(Cl)cc1 [indomethacin, reference compound]	29 ± 2 µM	
